Assay results: patent US20230270148A1, “BITTER BLOCKERS AND RELATED METHODS OF USE” (Conagen Inc., priority 2020, published 2023)

Tests used:
Type in all cases: in vivo
0.25% caffeine solution = experiment: Sensory evaluation: bitterness reduction of a caffeine solution; details: one trained sensory evaluator, vs control, dosage (ppm) per sample (20 to 50-100 ppm)
Protocol: (§1) The bitter blocker candidates listed in Table 1 were prepared into a 1% sample solution with propylene glycol (i.e., 1 g of bitter blocker per 100 ml of propylene glycol) and heated to ensure complete solubilization. […] A trained sensory evaluator was asked to estimate the perceived bitterness reduction against the control, as well as to provide comments on how the addition of the individual sample solution modulated the taste and mouth feel profile of the resulting caffeine solution.

[1] = test system: peach-flavored energy drink (caffeine, B vitamins); experiment: Sensory evaluation: bitterness reduction of a peach-flavored energy drink; details: caffeine about 710 mg/l, dosage (ppm) per sample (20 to 50-100 ppm)
Protocol: as §1, with “The bitterness” for “The bitter”, “glycol” for “glycol (i.e., 1 g of bitter blocker per 100 ml of propylene glycol)”, “resulting peach-flavored energy drink.” for “resulting caffeine solution.”

[2] = test system: melted dark chocolate pieces with 100% dark cacao; experiment: Sensory evaluation: bitterness reduction of dark chocolate pieces; details: dosage 50 or 100 ppm per sample
Protocol: (§2) The bitterness blocker candidates listed in Table 1 were prepared into a 1% sample solution with propylene glycol and heated to ensure complete solubilization. […] Individually, the respective sample solution was added to melted dark chocolate pieces with 100% dark cacao. A trained sensory evaluator was asked to estimate the perceived bitterness reduction against the control, as well as to provide comments on how the addition of the individual sample solution modulated the taste and mouth feel profile of the resulting melted dark chocolate pieces.

[3] = test system: cough syrup DELSYM (dextromethorphan HBr); experiment: Sensory evaluation: bitterness reduction of cough syrup DELSYM; details: dosage 50 or 100 ppm per sample
Protocol: as §2, with “a cough syrup sold under the trade name DELSYM®. The bitter-tasting agent contained in the cough syrup were dextromethorphan HBr USP 30 mg (as measured for each 5 ml teaspoon, i.e., 6000 mg/l of dextromethorphan).” for “melted dark chocolate pieces with 100% dark cacao.”, “cough syrup.” for “melted dark chocolate pieces.”

[4] = test system: cough syrup ROBITUSSIN DM (dextromethorphan HBr and guaifenesin); experiment: Sensory evaluation: bitterness reduction of cough syrup ROBITUSSIN DM; details: dosage 50 or 100 ppm per sample
Protocol: as §2, with “a cough syrup sold under the trade name ROBITUSSIN® DM. The bitter-tasting agents contained in the cough syrup were dextromethorphan HBr USP 20 mg and guaifenesin USP 400 mg (as measured for each 20 ml serving, or 21000 mg/l of bitter tastants in total).” for “melted dark chocolate pieces with 100% dark cacao.”, “cough syrup.” for “melted dark chocolate pieces.”

[5] = test system: full spectrum CBD hemp oil nanoemulsion; experiment: Sensory evaluation: bitterness reduction of full spectrum CBD hemp oil; details: dosage 50 or 100 ppm per sample
Protocol: as §2, with “A full spectrum CBD hemp oil was emulsified into a water-soluble nanoemulsion first, to which was added” for “Individually,”, “solution. […]” for “solution was added to melted dark chocolate pieces with 100% dark cacao.”, “oil nanoemulsion.” for “melted dark chocolate pieces.”

CBD isolate nanoemulsion = experiment: Sensory evaluation: bitterness reduction of CBD isolate; details: dosage 50 or 100 ppm per sample
Protocol: as §2, with “A CBD isolate was emulsified into a water-soluble nanoemulsion first, to which was added” for “Individually,”, “solution. […]” for “solution was added to melted dark chocolate pieces with 100% dark cacao.”, “nanoemulsion.” for “melted dark chocolate pieces.”

THC nanoemulsion = experiment: Sensory evaluation: bitterness reduction of THC; details: dosage 50 or 100 ppm per sample
Protocol: The bitterness blocker candidates listed in Table 1 were prepared into a 1% sample solution with propylene glycol and heated to ensure complete solubilization. […] THC was first emulsified into a water-soluble nanoemulsion (10 mg THC per serving), to which was added the respective sample solution. A trained sensory evaluator was asked to estimate the perceived bitterness reduction against the control, as well as to provide comments on how the addition of the individual sample solution modulated the taste and mouth feel profile of the resulting nanoemulsion.

caffeine in water = experiment: Two-alternative forced choice (2AFC) difference test
Protocol: The bitter blocker candidates BB09, BB11, and BB13 were subject to a two-alternative forced choice (2AFC) difference test wherein panelists were presented Control Caffeine solutions and Test solutions containing caffeine and one of three bitterness blocker candidates (BB09, BB 11, or BB13). Panelists were asked to evaluate the two samples and answer the question, “which one is more hitter?”
BB09 and BB11 were tested first. Three ounces of control (caffeine in water), BB09 in caffeine water, and BB11 in caffeine water were presented at room temperature in separate plastic souffle cups labeled with 3-digit codes. Ten sensory trained panelists evaluated each sample in three repetitions with a 10 minute break between repetitions. Panelists then completed the 2AFC. Data was collected on EveQuestion and analyzed on XLSTAT. Testing was conducted at Sensations Research according to FEMA guidelines.
BB13 was tested separately. Two ounces of control (caffeine in water), BB13 in caffeine water were presented at room temperature in separate plastic souffle cups labeled with 3-digit codes. Fifteen participants evaluated each sample in two repetitions with a 10 minute break between repetitions for a total of thirty evaluations as per the FEMA guidelines. Panelists then completed the 2AFC to identify the more bitter sample. Data was collected and analyzed on Compusense.

Compound: COc1cc([C@@H]2CC(=O)c3c(O)cc(O)cc3O2)ccc1O[C@@H]1O[C@H](CO)[C@@H](O)[C@H](O)[C@H]1O [BB11, Homoeriodictyol 4′-O-glucoside]
- Estimated % bitterness reduction (0.25% caffeine solution): 60-80% ^
- Estimated % bitterness reduction [1]: 80%
- Comments [2]: Good bitterness reduction but
- Estimated % bitterness reduction [2]: 60%
- Estimated % bitterness reduction ([3]; 6000 mg/l of dextromethorphan): 60%
- Comments [3]: Less bitter, smoother, more
- Estimated % bitterness reduction ([4]; 21000 mg/l of bitter tastants): 60%
- Comments [4]: Less bitter, smoother, more
- Comments [5]: Nice upfront bitterness reduction
- Estimated % bitterness reduction [5]: 60%
- Comments (CBD isolate nanoemulsion): Nice upfront bitterness reduction
- Estimated % bitterness reduction (CBD isolate nanoemulsion): 60%
- Estimated % bitterness reduction (THC nanoemulsion; THC nanoemulsion (10 mg THC per serving)): 60%
- Comments (THC nanoemulsion; THC nanoemulsion): Nice upfront bitterness reduction
- Significant? (caffeine in water; 2AFC, 90% confidence level, which sample is more bitter): Yes,
- # Selected Variant (which is more bitter?) (caffeine in water; of 30 responses (10 panelists, 3 evaluations), control caffeine in water vs variant in caffeine water): 10
